# In patent US20260132129A1 (Genesis Therapeutics, Inc., priority 2022, published 2026):
# Biological target: T1, PI3Kα H1047R (T47D cells) (Homo sapiens, UniProt P42336, H1047R)
# T1 construct: endogenous in cells; host or cells: T47D cells
# Experiment: PI3Kα cellular assay: pAKT HTRF in T47D cells after EGF stimulation
# Type: cell-based
# Conditions: for IC50: T47D cells (PI3Kα H1047R), pAKT S473 HTRF
# Procedure, shortened: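 pAKT read by HTRF in lysates of EGF-stimulated (20 ng/mL, 10 min) T47D H1047R cells. Before stimulation, serum-starved cells (16 h) received compound for 1 h at 37 °C, dosed from 10,000 nM down to 0.5 nM in 3-fold steps.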
# [1] = 1 hr compound, 20 ng/ml EGF 10 min
# [2] = selectivity T47D (H1047R) over SKBR3 (WT), pAKT HTRF
# [3] = selectivity of T47D (H1047R) over SKBR3 (WT) pAKT IC50
# T1 sequence (P42336 whole entry H1047R): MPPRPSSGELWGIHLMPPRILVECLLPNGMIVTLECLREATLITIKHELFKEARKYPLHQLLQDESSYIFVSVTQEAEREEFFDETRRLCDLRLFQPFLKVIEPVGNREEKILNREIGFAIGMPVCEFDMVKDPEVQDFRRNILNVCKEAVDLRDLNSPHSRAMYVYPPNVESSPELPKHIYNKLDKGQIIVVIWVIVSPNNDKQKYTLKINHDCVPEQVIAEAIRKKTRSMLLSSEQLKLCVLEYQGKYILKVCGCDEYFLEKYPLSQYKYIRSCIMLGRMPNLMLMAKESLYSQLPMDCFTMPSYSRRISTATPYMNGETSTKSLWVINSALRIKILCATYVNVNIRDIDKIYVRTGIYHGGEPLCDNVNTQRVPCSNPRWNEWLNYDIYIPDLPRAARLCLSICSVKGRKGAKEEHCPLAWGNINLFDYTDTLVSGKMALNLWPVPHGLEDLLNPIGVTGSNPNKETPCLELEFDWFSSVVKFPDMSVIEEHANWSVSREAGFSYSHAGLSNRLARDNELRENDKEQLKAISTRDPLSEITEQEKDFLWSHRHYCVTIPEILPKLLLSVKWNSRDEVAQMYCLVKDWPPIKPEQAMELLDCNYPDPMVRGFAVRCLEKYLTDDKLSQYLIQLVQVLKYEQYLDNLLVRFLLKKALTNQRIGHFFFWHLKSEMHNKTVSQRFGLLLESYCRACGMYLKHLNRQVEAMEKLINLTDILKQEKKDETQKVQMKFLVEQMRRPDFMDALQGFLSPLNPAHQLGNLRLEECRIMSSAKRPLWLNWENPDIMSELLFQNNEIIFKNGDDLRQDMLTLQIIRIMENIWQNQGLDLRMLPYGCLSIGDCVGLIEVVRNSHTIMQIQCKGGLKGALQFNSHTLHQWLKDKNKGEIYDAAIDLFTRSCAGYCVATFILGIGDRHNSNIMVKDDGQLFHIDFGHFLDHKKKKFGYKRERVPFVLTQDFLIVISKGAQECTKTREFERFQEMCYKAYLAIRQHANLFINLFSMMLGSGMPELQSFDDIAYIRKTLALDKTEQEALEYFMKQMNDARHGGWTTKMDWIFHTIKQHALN
# T1 sequence (P27986 whole entry partner): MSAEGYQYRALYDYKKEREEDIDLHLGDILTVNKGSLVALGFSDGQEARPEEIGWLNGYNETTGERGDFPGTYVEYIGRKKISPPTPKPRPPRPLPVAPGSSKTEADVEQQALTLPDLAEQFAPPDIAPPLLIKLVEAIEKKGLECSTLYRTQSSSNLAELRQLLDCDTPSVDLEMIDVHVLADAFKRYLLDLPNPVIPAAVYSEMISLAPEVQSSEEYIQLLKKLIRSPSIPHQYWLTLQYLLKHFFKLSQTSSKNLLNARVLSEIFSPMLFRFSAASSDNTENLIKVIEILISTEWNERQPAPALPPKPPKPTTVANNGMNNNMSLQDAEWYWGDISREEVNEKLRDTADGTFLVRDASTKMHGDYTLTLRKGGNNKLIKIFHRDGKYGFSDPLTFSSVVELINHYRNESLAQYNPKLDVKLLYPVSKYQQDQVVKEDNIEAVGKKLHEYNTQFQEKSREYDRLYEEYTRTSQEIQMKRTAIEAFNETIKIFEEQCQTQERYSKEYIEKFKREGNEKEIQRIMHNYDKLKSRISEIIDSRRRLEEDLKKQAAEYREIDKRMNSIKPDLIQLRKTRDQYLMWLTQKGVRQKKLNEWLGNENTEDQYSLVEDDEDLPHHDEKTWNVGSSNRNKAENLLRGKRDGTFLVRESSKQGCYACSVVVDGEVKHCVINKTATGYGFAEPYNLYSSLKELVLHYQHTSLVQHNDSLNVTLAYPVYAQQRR
SMILES,IC50 [1],T47D pAKT S473 HTRF IC50 (H1047R): T47D (H1047R) selectivity over SKBR3 (WT) [2],IC50 (EGF stimulation),T47D pAKT S473 HTRF IC50 (H1047R): T47D (H1047R) selectivity over SKBR3 (WT) [3]
"Cc1cc(C(C)Nc2ccccc2C(=O)O)c2nc(-c3ccc4c(c3)c(N)nn4C)cc(=O)n2c1 (single isomer, unassigned) [Compound 535]",> 2000 nM,C (C denotes ≤5-fold),,
Cc1cc([C@H](C)Nc2cccc3onc(O)c23)c2nc(-c3ccccc3)c(C)c(=O)n2c1 [Compound 1403],,C (C denotes ≤5-fold),,
Cc1cc(C(C)Nc2ccccc2C(N)=O)c2nc(-c3ccnc(C4CC4)c3)c(C)c(=O)n2c1 (stereo not shown) [Compound 1063],,A (A denotes >20-fold),100 to 500 nM,
Cc1cc(C(C)Nc2ccccc2C(=O)O)c2nc(-c3cc(C)ncn3)c(C)c(=O)n2c1 (stereo not shown) [Compound 1203],,A (A denotes >20-fold),100 to 500 nM,
"Cc1cc([C@@H](C)Nc2ccccc2C(=O)O)c2nc(-c3ccc4c(c3)c(C)nn4C)cc(=O)n2c1 (single isomer, unassigned) [Compound 739]",,,> 2000 nM,C (C denotes ≤5-fold)
Cc1cc([C@H](C)Nc2ccccc2C(=O)O)c2nc(-c3ccc4c(c3)COC4)cc(=O)n2c1 [Compound 852],,,,C (C denotes ≤5-fold)
Cc1cc([C@H](C)Nc2ccccc2C(=O)O)c2nc(-c3cc4c(N)nn(C)c4cc3C)cc(=O)n2c1 [Compound 705],,,> 2000 nM,C (C denotes ≤5-fold)
Cc1cc(C(C)N(C)c2ccccc2S(N)(=O)=O)c2nc(N3Cc4ccccc4C3)cc(=O)n2c1 (stereo not shown) [Compound 836],,,> 2000 nM,C (C denotes ≤5-fold)
"Cc1cc([C@H](C)Nc2ccccc2S(N)(=O)=O)c2nc(N3Cc4ccccc4C3)cc(=O)n2c1 (single isomer, unassigned) [Compound 606]",> 2000 nM,C (C denotes ≤5-fold),,
Cc1cc([C@@H](C)Nc2ccccc2S(N)(=O)=O)c2nc(-c3cnc4c(c3)c(C)nn4C3CC3)c(C)c(=O)n2c1 [Compound 991],,,100 to 500 nM,A (A denotes >20-fold)
Cc1cc([C@@H](C)Nc2ccccc2C(=O)O)c2nc(C3CCN(C(=O)C4(N)CC4)CC3)cc(=O)n2c1 [Compound 525],> 2000 nM,C (C denotes ≤5-fold),,
"Cc1cc(C(C)Nc2ccccc2C(=O)O)c2nc(-c3ccncc3)cc(=O)n2c1 (single isomer, unassigned) [Compound 268]",> 2000 nM,C (C denotes ≤5-fold),,
Cc1cc([C@H](C)Nc2cccc3c2CCC(=O)N3)c2nc(N3CCOCC3)cc(=O)n2c1 [Compound 604],> 2000 nM,C (C denotes ≤5-fold),,
Cc1cc([C@@H](C)Nc2c(C)cccc2C(=O)O)c2nc(N3CCOCC3)cc(=O)n2c1 [Compound 335],> 2000 nM,C (C denotes ≤5-fold),,
Cc1cc([C@H](C)NC2=C(C(=O)O)C=CCC2)c2nc(-c3ccc(CC4CCN(C(=O)C5CC5)CC4)nc3)cc(=O)n2c1 [Compound 784],,,> 2000 nM,C (C denotes ≤5-fold)
CCc1c(-c2ccc(F)cc2)nc2c([C@H](C)Nc3ccccc3C(=O)O)cc(C)cn2c1=O [Compound 1116],,B (B denotes 20-fold≥value>5-fold),500 to 2000 nM,
Cc1cc([C@@H](C)Nc2ccccc2C(=O)O)c2nc([C@H]3CCOC3)cc(=O)n2c1 [Compound 537],500 to 2000 nM,B (B denotes 20-fold≥value>5-fold),,
Cc1cc([C@H](C)Nc2cccc3[nH]c(=O)oc23)c2nc(N3CCOCC3)cc(=O)n2c1 [Compound 566],> 2000 nM,C (C denotes ≤5-fold),,
